Experiment [1] concerns the target Human α2δ-1 subunit of Cav2.2 calcium channel (Homo sapiens, UniProt P54289). As to the kind of experiment: Human α2δ-1 subunit of Cav2.2 calcium channel assay ([3H]-gabapentin binding). The note with it: binding to the α2δ-1 subunit of voltage-gated calcium channels expressed as Ki; + also covers inhibition between 1% and 50%. As to the method: Biological Activity Pharmacological Study Human α2δ-1 Subunit of Cav2.2 Calcium Channel Assay
Human α2δ-1 enriched membranes (2.5 μg) were incubated with 15 nM of radiolabeled [^3H]-Gabapentin in assay buffer containing Hepes-KOH 10 mM, pH 7.4. NSB (non specific binding) was measured by adding 10 μM pregabalin. The binding of the test compound was measured at either one concentration (% inhibition at 1 or 10 μM) or five different concentrations to determine affinity values (Ki). After 60 min incubation at 27° C., binding reaction was terminated by filtering through Multiscreen GF/C (Millipore) presoaked in 0.5% polyethyleneimine in Vacuum Manifold Station, followed by 3 washes with ice-cold filtration buffer containing 50 mM Tris-HCl, pH 7.4. Filter plates were dried at 60° C. for 1 h and 30 μL of scintillation cocktail were added to each well before radioactivity reading. Readings were performed in a Trilux 1450 Microbeta radioactive counter (Perkin Elmer).

In experiment [2] the target is T1, Human σ1 receptor (Homo sapiens, UniProt Q99720).
T1 construct: expressed in transfected cells; host or cells: HEK-293
T1 sequence (Q99720 whole entry): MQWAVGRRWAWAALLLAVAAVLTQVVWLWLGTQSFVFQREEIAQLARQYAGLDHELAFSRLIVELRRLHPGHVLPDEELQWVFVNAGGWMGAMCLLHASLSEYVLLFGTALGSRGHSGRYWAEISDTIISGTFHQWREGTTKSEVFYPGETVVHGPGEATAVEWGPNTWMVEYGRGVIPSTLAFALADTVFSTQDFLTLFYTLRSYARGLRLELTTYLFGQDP
The experiment in a line: Human σ1 receptor radioligand assay ([3H](+)-pentazocine binding, transfected HEK-293 membranes). The conditions noted are these: binding to σ1 receptor expressed as Ki; + also covers inhibition between 1% and 50%; read-out: σ-1 binding. As to the method:
Human σ1 Receptor Radioligand Assay
Transfected HEK-293 membranes (7 μg) were incubated with 5 nM of [^3H](+)-pentazocine in assay buffer containing Tris-HCl 50 mM at pH 8. NBS (non-specific binding) was measured by adding 10 μM haloperidol. The binding of the test compound was measured at either one concentration (% inhibition at 1 or 10 μM) or five different concentrations to determine affinity values (Ki). Plates were incubated at 37° C. for 120 minutes. After the incubation period, the reaction mix was then transferred to MultiScreen HTS, FC plates (Millipore), filtered and plates were washed 3 times with ice-cold 10 mM Tris-HCL (pH7.4). Filters were dried and counted at approximately 40% efficiency in a MicroBeta scintillation counter (Perkin-Elmer) using EcoScint liquid scintillation cocktail.

Each structure is given as a SMILES string. Where only a bound is given, the exact number is not on record here.

Human α2δ-1 subunit of Cav2.2 calcium channel, sequence (P54289 25-1103): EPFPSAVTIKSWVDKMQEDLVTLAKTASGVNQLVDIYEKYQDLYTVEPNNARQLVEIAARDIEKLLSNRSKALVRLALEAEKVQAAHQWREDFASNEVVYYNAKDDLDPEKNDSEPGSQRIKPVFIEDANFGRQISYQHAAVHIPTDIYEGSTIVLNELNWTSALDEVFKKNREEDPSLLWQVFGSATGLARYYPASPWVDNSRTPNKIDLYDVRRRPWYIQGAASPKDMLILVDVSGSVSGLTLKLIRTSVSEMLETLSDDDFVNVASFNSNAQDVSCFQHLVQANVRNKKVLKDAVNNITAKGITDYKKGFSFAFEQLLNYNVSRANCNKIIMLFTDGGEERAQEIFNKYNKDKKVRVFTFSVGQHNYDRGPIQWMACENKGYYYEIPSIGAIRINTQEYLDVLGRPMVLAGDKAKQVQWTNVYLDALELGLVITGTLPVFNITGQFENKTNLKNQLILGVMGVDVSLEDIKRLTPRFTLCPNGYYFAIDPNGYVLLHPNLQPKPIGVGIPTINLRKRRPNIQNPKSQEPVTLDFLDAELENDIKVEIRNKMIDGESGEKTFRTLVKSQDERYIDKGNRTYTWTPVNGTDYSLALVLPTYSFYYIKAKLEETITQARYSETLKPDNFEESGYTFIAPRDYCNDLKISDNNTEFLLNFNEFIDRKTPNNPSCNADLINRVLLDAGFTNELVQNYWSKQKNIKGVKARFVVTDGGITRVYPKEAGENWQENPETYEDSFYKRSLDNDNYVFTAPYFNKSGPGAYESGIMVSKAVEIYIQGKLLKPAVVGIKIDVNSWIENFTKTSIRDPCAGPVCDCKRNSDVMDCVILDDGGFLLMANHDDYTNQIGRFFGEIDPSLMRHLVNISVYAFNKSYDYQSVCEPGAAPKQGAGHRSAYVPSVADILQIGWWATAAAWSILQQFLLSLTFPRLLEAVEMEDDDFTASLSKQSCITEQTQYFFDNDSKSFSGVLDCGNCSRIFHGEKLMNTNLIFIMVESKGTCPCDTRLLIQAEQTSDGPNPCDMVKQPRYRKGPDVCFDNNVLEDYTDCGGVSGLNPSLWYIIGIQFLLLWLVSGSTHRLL

For the compound `COCC1CCN(Cc2c(C)nn3c(C4CCCN(Cc5ccc(Cl)cc5)C4)ccnc23)CC1` (centres unmarked) [Example 170, 7-(1-(4-Chlorobenzyl)piperidin-3-yl)-3-((4-(methoxymethyl)piperidin-1-yl)methyl)-2-methylpyrazolo[1,5-a]pyrimidine], the Ki in experiment [1] and in experiment [2] was less than 500 nM each time. Consider `Cc1nn2c(C3CCCN(Cc4ccccc4)C3)ccnc2c1COc1ccccc1` (centres unmarked) [Example 102, 7-(1-Benzylpiperidin-3-yl)-2-methyl-3-(phenoxymethyl)pyrazolo[1,5-a]pyrimidine], for which the Ki is more than 5000 nM in experiment [1] and more than 1000 nM in experiment [2].

Turning to `Cn1cncc1-c1cc2nccc(C3CCCN(Cc4ccccc4)C3)n2n1` (centres unmarked) [Example 21, 7-(1-Benzylpiperidin-3-yl)-2-(1-methyl-1H-imidazol-5-yl)pyrazolo[1,5-a]pyrimidine], the Ki is 500 to 5000 nM in experiment [1] and more than 1000 nM in experiment [2]. The matching figures for `Cc1nn2c(C3CCCN(Cc4ccc(Cl)cc4)C3)ccnc2c1CN(CC1CCOCC1)CC(F)(F)F` (centres unmarked) [Example 235, N-((7-(1-(4-Chlorobenzyl)piperidin-3-yl)-2-methylpyrazolo[1,5-a]pyrimidin-3-yl)methyl)-2,2,2-trifluoro-N-((tetrahydro-2H-pyran-4-yl)methyl)ethan-1-amine]: more than 5000 nM and 500 to 1000 nM. Turning to `Cc1nn2c(C3CCCN(Cc4ccccc4)C3)ccnc2c1CNCc1ccccc1` (centres unmarked) [Example 98, N-Benzyl-1-(7-(1-benzylpiperidin-3-yl)-2-methylpyrazolo[1,5-a]pyrimidin-3-yl)methanamine], the Ki was 500 to 5000 nM in experiment [1] and less than 500 nM in experiment [2].

With `CN[C@H]1CCN(c2cc3nccc([C@@H]4CCCN(Cc5ccccc5)C4)n3n2)C1` [Example 86, (S)-1-(7-((R)-1-Benzylpiperidin-3-yl)pyrazolo[1,5-a]pyrimidin-2-yl)-N-methylpyrrolidin-3-amine], the Ki in experiment [1] was 500 to 5000 nM; in experiment [2], more than 1000 nM.

With `Clc1ccc(CN2CCCC(c3ccnc4cc(Br)nn34)C2)cc1Cl` (centres unmarked) [Example 112, 2-Bromo-7-(1-(3,4-dichlorobenzyl)piperidin-3-yl)pyrazolo[1,5-a]pyrimidine], the Ki in experiment [1] is more than 5000 nM; in experiment [2] it was more than 1000 nM. Turning to `Clc1cncc(Cl)c1-c1cc2nccc(C3CCCN(Cc4ccccc4)C3)n2n1` (centres unmarked) [Example 18, 7-(1-Benzylpiperidin-3-yl)-2-(3,5-dichloropyridin-4-yl)pyrazolo[1,5-a]pyrimidine], the figures for the Ki in experiment [1] and in experiment [2] were 500 to 5000 nM and 500 to 1000 nM, respectively.

For `c1ccc(CN2CCCC(c3ccnc4cc(-c5ccccc5)nn34)C2)cc1` (centres unmarked) [Example 12, 7-(1-Benzylpiperidin-3-yl)-2-phenylpyrazolo[1,5-a]pyrimidine], the Ki was more than 5000 nM in experiment [1] and 500 to 1000 nM in experiment [2]. The matching figures for `CNCCNc1cc2nccc(C3CCCN(Cc4ccccc4)C3)n2n1` (centres unmarked) [Example 83, N^1-(7-(1-Benzylpiperidin-3-yl)pyrazolo[1,5-a]pyrimidin-2-yl)-N^2-methylethane-1,2-diamine]: 500 to 5000 nM and more than 1000 nM. With `Cc1nn2c(C3CCCN(Cc4ccc(Cl)cc4)C3)ccnc2c1-c1ccncn1` (centres unmarked) [Example 139, 7-(1-(4-Chlorobenzyl)piperidin-3-yl)-2-methyl-3-(pyrimidin-4-yl)pyrazolo[1,5-a]pyrimidine], the Ki in experiment [1] was more than 5000 nM; in experiment [2], more than 1000 nM. With `Cc1nn2c(C3CCCN(Cc4ccccc4)C3)ccnc2c1CNCCc1ccccc1` (centres unmarked) [Example 97, N-((7-(1-Benzylpiperidin-3-yl)-2-methylpyrazolo[1,5-a]pyrimidin-3-yl)methyl)-2-phenylethanamine], the Ki in experiment [1] is 500 to 5000 nM; in experiment [2], less than 500 nM.

On to `Cc1nn2c(C3CCCN(Cc4ccc(Cl)cc4)C3)ccnc2c1-c1ccc(CO)nc1` (centres unmarked) [Example 135, (5-(7-(1-(4-Chlorobenzyl)piperidin-3-yl)-2-methylpyrazolo[1,5-a]pyrimidin-3-yl)pyridin-2-yl)methanol], for which the Ki in experiment [1] was more than 5000 nM; in experiment [2], more than 1000 nM. The matching figures for `Cc1nn2c(CC3CCCN(Cc4ccc(Cl)cc4)C3)ccnc2c1CN(C)C` (centres unmarked) [Example 251, 1-(7-((1-(4-Chlorobenzyl)piperidin-3-yl)methyl)-2-methylpyrazolo[1,5-a]pyrimidin-3-yl)-N,N-dimethylmethanamine]: more than 5000 nM and less than 500 nM. `Cc1nn2c(C3CCCN(Cc4ccccc4)C3)ccnc2c1-c1ccncc1F` (centres unmarked) [Example 52, 7-(1-Benzylpiperidin-3-yl)-3-(3-fluoropyridin-4-yl)-2-methylpyrazolo[1,5-a]pyrimidine]: the figures for the Ki in experiment [1] and in experiment [2] were 500 to 5000 nM and more than 1000 nM, respectively.

For `Cc1nn2c(C3CCCN(Cc4ccccc4)C3)ccnc2c1CCCN` (centres unmarked) [Example 103, 3-(7-(1-Benzylpiperidin-3-yl)-2-methylpyrazolo[1,5-a]pyrimidin-3-yl)propan-1-amine], the Ki in experiment [1] is 500 to 5000 nM; in experiment [2], more than 1000 nM. With `Clc1ccc(-c2cc3nccc(C4CCCN(Cc5ccccc5)C4)n3n2)cc1` (centres unmarked) [Example 15, 7-(1-Benzylpiperidin-3-yl)-2-(4-chlorophenyl)pyrazolo[1,5-a]pyrimidine], the Ki was more than 5000 nM in experiment [1] and more than 1000 nM in experiment [2]. Regarding `Cc1nn2c(C3CCCN(Cc4ccc(Cl)cc4)C3)ccnc2c1-c1ccc(C(N)=O)cc1` (centres unmarked) [Example 129, 4-(7-(1-(4-Chlorobenzyl)piperidin-3-yl)-2-methylpyrazolo[1,5-a]pyrimidin-3-yl)benzamide], the Ki in experiment [1] is more than 5000 nM; in experiment [2], more than 1000 nM. Turning to `Cc1nn2c(C3CCCN(Cc4ccccc4)C3)ccnc2c1N(C)C` (centres unmarked) [Example 142, 7-(1-Benzylpiperidin-3-yl)-N,N,2-trimethylpyrazolo[1,5-a]pyrimidin-3-amine], the Ki in experiment [1] was more than 5000 nM; in experiment [2] it was more than 1000 nM. Consider `Cc1nn2c(C3CCCN(CCC(C)C)C3)ccnc2c1-c1ccncc1` (centres unmarked) [Example 127, 7-(1-Isopentylpiperidin-3-yl)-2-methyl-3-(pyridin-4-yl)pyrazolo[1,5-a]pyrimidine], for which the Ki is more than 5000 nM in experiment [1] and less than 500 nM in experiment [2]. `Cc1nn2c(CC3CCCN(Cc4cccc(Cl)c4)C3)ccnc2c1-c1ccncc1` (centres unmarked) [Example 250]: the Ki was more than 5000 nM in experiment [1] and 500 to 1000 nM in experiment [2].

Regarding `Cc1nn2c(C3CCCN(Cc4ccc(Cl)cc4)C3)ccnc2c1CN1C[C@@H](C)O[C@@H](C)C1` (stereo partly drawn) [Example 164, (2S,6R)-4-((7-(1-(4-Chlorobenzyl)piperidin-3-yl)-2-methylpyrazolo[1,5-a]pyrimidin-3-yl)methyl)-2,6-dimethylmorpholine], the figures for the Ki in experiment [1] and in experiment [2] were 500 to 5000 nM and 500 to 1000 nM, respectively. For the compound `Cc1nn2c(C3CCCN(Cc4ccccc4)C3)ccnc2c1-c1ccccc1F` (centres unmarked) [Example 48, 7-(1-Benzylpiperidin-3-yl)-3-(2-fluorophenyl)-2-methylpyrazolo[1,5-a]pyrimidine], the Ki was more than 5000 nM in experiment [1] and more than 1000 nM in experiment [2]. Regarding `CC(=O)N1CCC(CNCc2c(Cl)nn3c([C@@H]4CCCN(Cc5ccccc5)C4)ccnc23)CC1` [Example 217, (R)-1-(4-((((7-(1-benzylpiperidin-3-yl)-2-chloropyrazolo[1,5-a]pyrimidin-3-yl)methyl)amino)methyl)piperidin-1-yl)ethan-1-one], the Ki in experiment [1] is more than 5000 nM.
